According to PubChem BioAssay AID588764 (Broad Institute, 2011):
Results filed as inconclusive are left out. Active and inactive are the calls of the source. The rule behind the calls is not given here.

Target: Histone acetyltransferase RTT109 (Candida albicans (strain SC5314 / ATCC MYA-2876)) (UniProt Q5AAJ8)
Assay: Rtt109/Vps75 acetyltransferase inhibitor potency, dose response, biochemical, cherry-picked hits, plate reader (AID 588764)
Details: Rtt109/Vps75 HAT activity

Sequence of Histone acetyltransferase RTT109 (Candida albicans (strain SC5314 / ATCC MYA-2876)) (Q5AAJ8 whole entry, looked up): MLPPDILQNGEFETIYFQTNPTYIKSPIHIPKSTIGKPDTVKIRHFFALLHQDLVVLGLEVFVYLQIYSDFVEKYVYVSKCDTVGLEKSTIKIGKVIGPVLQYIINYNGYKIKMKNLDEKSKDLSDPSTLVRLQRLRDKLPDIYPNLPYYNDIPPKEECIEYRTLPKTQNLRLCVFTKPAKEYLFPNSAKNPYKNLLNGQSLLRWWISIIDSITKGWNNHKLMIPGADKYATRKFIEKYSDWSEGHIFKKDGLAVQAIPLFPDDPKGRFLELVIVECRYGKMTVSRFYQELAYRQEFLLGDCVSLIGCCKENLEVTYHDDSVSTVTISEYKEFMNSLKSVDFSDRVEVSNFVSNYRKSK

Row | SMILES | AC50
1 | CC(C)(C)c1cc(C(c2cccnc2)N2CCN(CCO)CC2)cc(C(C)(C)C)c1O (stereo not given) | 9.87 µM
2 | N#CC1=C(S)N(c2ccccc2)C(c2ccc(-c3cccc(Cl)c3)o2)NC1=O (stereo not given) | 11.9 µM
3 | COC(=O)c1cccc(-n2sc3ccccc3c2=O)c1 | 4.38 µM
4 | O=c1c2ccccc2sn1-c1cc(S(=O)(=O)N2CCOCC2)ccc1N1CCOCC1 | 3.78 µM
5 | C=CCNc1nnc(SC2CC(=O)N(c3ccc(OC)cc3)C2=O)s1 (stereo not given) | 13.4 µM
6 | C[C@]12CC[C@@H]3c4cc(O)c(O)cc4CC[C@H]3[C@@H]1CC[C@@H]2O | 9.63 µM
7 | CCOC(=O)N1CCN(Cc2c(O)ccc3ccccc23)CC1 | 18.8 µM
8 | Cc1ccc(/C=C/C(=O)NCc2ccc(S(N)(=O)=O)cc2)o1 | 10.7 µM
9 | COc1ccc(-n2sc3ccc(F)cc3c2=O)cc1 | 6 µM
10 | O=C(O)c1ccccc1NS(=O)(=O)c1cccc(-n2sc3ccccc3c2=O)c1 | 3.49 µM
11 | Oc1c(Cl)cc(Cl)c(Cl)c1Cc1c(O)c(Cl)cc(Cl)c1Cl | 5.48 µM
12 | O=C(O)C1CCc2sc3[nH]c(=S)n(-c4ccccc4)c(=O)c3c21 (stereo not given) | 9.94 µM
13 | CCCC1(c2ccccc2)NC(=O)N(CC(=O)N(C)Cc2c(F)cccc2Cl)C1=O (stereo not given) | 2.79 µM
14 | O=C(CCc1ccc(S(=O)(=O)N2CCOCC2)cc1)N/N=C/c1ccc(O)c(O)c1O | 9.29 µM
15 | COc1ccc(OC)c2sc(N(CCCN(C)C)C(=O)CCS(=O)(=O)c3ccccc3)nc12 | 20.1 µM
16 | CCSS(=O)(=O)c1cccc2cccnc12 | 5.16 µM
17 | CCN(CC)C(=S)SSC(=S)N(CC)CC | 3.26 µM
18 | Oc1cc2c(cc1O)C1c3ccc(O)c(O)c3OCC1(O)C2 (stereo not given) | 6.08 µM
19 | CC1(C)CC2(CC(c3ccccc3F)c3ccc(O)c(O)c3O2)NC(=S)N1 (stereo not given) | 19.7 µM
20 | CS(=O)(=O)c1ncc(Cl)c(C(=O)Nc2ccc(N3CCOCC3)cc2)n1 | 8.27 µM
21 | CCCCS(=O)(=O)/C=C\C=C/S(=O)(=O)CCCC | 7.19 µM
22 | C[C@]12CC[C@@H]3c4ccc(O)c(O)c4CC[C@H]3[C@@H]1CC[C@@H]2O | 10 µM
23 | Cc1ccc(NC(=O)c2cc(N3C(=O)C=CC3=O)ccc2N2CCOCC2)cc1 | 7.03 µM
24 | CC(=O)Nc1ccc(NC(=O)c2nc(S(=O)(=O)Cc3ccccc3)ncc2Cl)cc1 | 6.3 µM
25 | N#Cc1c(Nc2ccccc2Cl)s[nH]c1=O | 4.21 µM
26 | O=c1[nH]c2ccccc2n2c(-c3ccccc3)nnc12 | 1.98 µM

Same assay, conditions: Rtt109/Vps75 HAT activity, at 19.5 µM (top of the series)

Row | SMILES | activity change, negative = inhibition
27 | O=C(NCCCN1CCN(c2ccccc2F)CC1)C1CCC(=O)N1C1CCCCC1 (stereo not given) | inactive
28 | Cc1[nH]n(-c2ccccc2)c(=O)c1C=NC1CCCCC1 | inactive
29 | Cc1ccc(C(=O)NCCCNC(=O)COc2ccc(C)c(C)c2)cn1 | inactive
30 | CC1Cc2ccccc2N1C(=O)COC(=O)c1ccc(O)cc1 (stereo not given) | inactive
31 | CCOC(=O)C1CCCN(c2cc(=O)n(C3CCCCC3)c(=O)[nH]2)C1 (stereo not given) | inactive
32 | CC1CCN(c2nc(CN3CCCCC3)nc3scc(-c4ccccc4)c23)CC1 | inactive
33 | Cc1ccc2sc(NNC(=O)C3=COCCO3)nc2c1C | inactive
34 | COc1ccc(C2CC(=O)C(C=NCCO)=C(O)C2)cc1 (stereo not given) | inactive
35 | COc1ccc(/C=N/NC(=O)COc2ccc(Cl)cc2Cl)cc1Cn1nc(C)cc1C | inactive
36 | CCOc1ccc(N2C(=O)CC(Sc3ccccc3C(=O)O)C2=O)c([N+](=O)[O-])c1 (stereo not given) | inactive
37 | Cc1ccc(S(=O)(=O)N/N=C\C=C\c2ccccc2)cc1 | inactive
38 | COc1ccc(OC)c(/C=C2\SC(=S)N(C(C(=O)O)c3ccccc3)C2=O)c1 (stereo not given) | inactive
39 | COC(=O)c1cccc(Oc2cccc(Cl)n2)c1 | inactive
40 | Cc1ccc(S(=O)(=O)/N=C2\C=C(NS(=O)(=O)c3ccccc3)C(=O)c3ccccc32)cc1 | inactive
41 | CC(C)c1nc(SCC(=O)Nc2ccc(N3CCOCC3)cc2)c2ccccc2n1 | inactive
42 | O=C(OCc1ccc(Br)cc1)c1ccncc1 | inactive
43 | Cc1ccccc1C(=O)NC(NC(=S)Nc1ccc(S(N)(=O)=O)cc1)C(Cl)(Cl)Cl (stereo not given) | inactive
44 | O=C1Cc2ccccc2Sc2c(OCCN3CCCCC3)cccc21 | inactive
45 | COc1ccc(-n2cnc3scc(-c4ccc(OC)c(OC)c4)c3c2=O)cc1 | inactive
46 | CC(C)CCNC(=O)C1CCN(S(=O)(=O)c2ccc3c(c2)CC(C)N3C(=O)C2CCC2)CC1 (stereo not given) | inactive
47 | COc1ccc(N2CCN(C(=O)CNC(=O)Cc3ccccc3)CC2)cc1 | inactive
48 | O=C(CSc1n[nH]c(-c2ccccc2Cl)n1)NC1CCCCC1 | inactive
49 | COCC(=O)OCC(=O)Nc1cc(C)c(C)cc1[N+](=O)[O-] | inactive

Row | SMILES | activity change, negative = inhibition
50 | Fc1ccc(NC(=S)Nc2ccc(Br)cc2)cc1 | inactive
51 | CC(=O)Nc1ccc(OCC(=O)NCc2ccccc2)cc1 | inactive
52 | Cc1ccccc1C(=O)NCCNC(=O)c1ccco1 | inactive
53 | CCOC(=O)c1c(C)oc2c(CC(=O)c3ccccc3)c(Cl)c(O)c(O)c12 | inactive
54 | Cn1c(SCC(=O)NC2CCCCC2)nnc1-c1cccnc1 | inactive
55 | Cc1cc(C(=O)Nc2ccncc2)c(C)o1 | inactive
56 | O=c1[nH]c2ccccc2c2oc(CCl)nc12 | inactive
57 | CCOC(=O)c1c(C)n(-c2ccc(C)cc2)c2ccc(OCC(O)CNCCCO)cc12 (stereo not given) | inactive
58 | NNc1n[nH]c(=S)n1N | inactive
59 | CCN(CC)S(=O)(=O)c1ccc(C(=O)Nc2cc(S(=O)(=O)N3CCOCC3)ccc2N2CCN(C)CC2)cc1 | inactive
60 | CC(C(=O)NC1C=CS(=O)(=O)C1)N1C(=O)/C(=C/c2ccc(Cl)cc2)SC1=S (stereo not given) | inactive
61 | CCN1/C(=C/c2ccc3cc(C)cc(C)c3[n+]2CC)Sc2cc(C)ccc21 | inactive
62 | CCCn1cc(S(=O)(=O)CC(=O)NC2CCCCC2)c2ccccc21 | inactive
63 | Cc1ccc2nc(-c3ccc(NC(=S)NC4CC(C)(C)NC(C)(C)C4)cc3)sc2c1 | inactive
64 | Cc1cccn2cc(CCNS(=O)(=O)c3cccs3)nc12 | inactive
65 | CC(=O)c1cccc(S(=O)(=O)N2CCC(C(=O)O)CC2)c1 | inactive
66 | Cc1ccc2nc(N(CCCN(C)C)C(=O)c3ccc4c(c3)CCCC4)sc2c1 | inactive
67 | CCOC(=O)C1=C(C)N=c2s/c(=C/c3ccc(OCC(=O)O)cc3)c(=O)n2C1c1cc(OC)c(OC)c(OC)c1 (stereo not given) | inactive
68 | COc1cccc(/C=C2\SC(=S)N(C(C)C(=O)NC3C=CS(=O)(=O)C3)C2=O)c1 (stereo not given) | inactive
69 | COc1ccc(CCNC(=O)CN2C(=O)NC3(CCCCC3C)C2=O)cc1 (stereo not given) | inactive
70 | CN(C)c1ccc(/C=C/c2cc[n+](C)c3ccccc23)cc1 | inactive
71 | CCOc1ccccc1N1CCN(C(=O)c2ccncc2)CC1 | inactive
72 | Cc1cc(OCc2ccc(C(=O)NN=C3CCCC3)cc2)ccc1Cl | inactive

Row | SMILES | activity change, negative = inhibition
73 | O=C(Nc1nc(-c2nc3ccccc3s2)cs1)c1ccc(S(=O)(=O)N2CCOCC2)cc1 | inactive
74 | Oc1ccccc1CNc1cnc2ccccc2c1 | inactive
75 | Cc1ccc(C(=O)NCC(=O)NCC(c2ccco2)N2CCCCC2)cc1C (stereo not given) | inactive
76 | O=C(C[n+]1cc(-c2ccc(Cl)c(Cl)c2)n2c1CCC2)N1c2ccccc2Sc2ccccc21 | inactive
77 | CCCCCCCCCCCCn1ccc(=N)cc1 | inactive
78 | CN1CCN(S(=O)(=O)c2cccc(C(=O)N(Cc3ccccc3)c3ccccc3)c2)CC1 | inactive
79 | CCCC(CCC)C(=O)OC[N+](C)(C)CCOC(=O)C(O)(c1ccccc1)C1CCCC1 (stereo not given) | inactive
80 | O=C(O)c1ccc(-c2ccc(/C=N/Nc3ccc([N+](=O)[O-])cc3)o2)cc1 | inactive
81 | COc1cccc(/C=C2/Sc3ccc(C(=O)NCCN4CCCC4)cc3NC2=O)c1 | inactive
82 | CCn1c(SCC(=O)Nc2ccc(Br)cc2)nc2sc3c(c2c1=O)CCN(C)C3 | inactive
83 | COCc1ccc(CN2CCC(n3nccc3NC(=O)C(OC)c3ccccc3)CC2)o1 (stereo not given) | inactive
84 | C#CCOCCOCCOCCNc1nc(N2CCN(C(=O)C([C@@H](C)O)n3cc([C@@H](N)CCCCN)nn3)CC2)nc(N2CCN(C(=O)[C@H](CCCCN)n3cc(CN)nn3)CC2)n1 (stereo not given in full) | inactive
85 | CCCC[n+]1c(C)sc2cc(OC)ccc21 | inactive
86 | CCn1c(CCn2c3ccccc3c3ccccc32)n[nH]c1=S | inactive
87 | O=C(Nc1ccc2oc(-c3ccncc3)nc2c1)c1ccc2c(c1)OCCO2 | inactive
88 | O=C(CNC(=O)c1ccc(Br)o1)NC12CC3CC(CC(C3)C1)C2 | inactive
89 | CCOC(=O)C(C)N1C(=O)S/C(=C/c2ccc3c(c2)n(C)c(=O)n3C)C1=O (stereo not given) | inactive
90 | Cc1cccc(-n2c(O)c(/C=N/NC(=O)c3ccccc3Cl)c3ccccc3c2=O)n1 | inactive
91 | COc1ccc(CNC(=O)COC(=O)c2ccc(S(=O)(=O)N3CCCCC3)cc2)cc1 | inactive
92 | Cc1ccc(S(=O)(=O)Nc2ccc(O)c3cccnc23)cc1 | inactive
93 | CCOC(=O)c1c(C)oc2c1c(C=NCCO)c(O)c1ccccc12 | inactive
94 | Cc1ccc2nc(N(CCCN(C)C)C(=O)c3sc4ccccc4c3Cl)sc2c1 | inactive
95 | CCCCNS(=O)(=O)c1ccc(NC(=O)Cc2ccccc2[N+](=O)[O-])cc1 | inactive
